# System: PCC7002:pAB125 clones
# Experiment: Growth on low salt spectinomycin segregation plates
# Type: cell-based, Synechococcus sp. strain PCC 7002
# Method: 1 mL of the culture was washed once in BG-11 (2.500×g, 10 min spin) and streaked for single colonies on low salt media (BG-11+vB12) plates with various spectinomycin concentrations (sp15, 30, 60, 120, 240, 300, 360, and 500 μg/mL). These segregation plates were incubated at room temperature with low light overnight and then at 37° C. with continuous light or with a 12 h/12 h light/dark cycle for approximately 2 weeks.
smiles,measurement,setting,value
CN[C@@H]1[C@H](O)[C@H](NC)[C@H]2O[C@@]3(O)C(=O)C[C@@H](C)O[C@H]3O[C@@H]2[C@H]1O [spectinomycin],growth on low salt plates,"240 and 300 mg/L of spectinomycin, BG-11+vB12, about 2 weeks",single colonies formed
same,growth on low salt plates,"higher spectinomycin concentrations (360, 500 μg/mL), BG-11+vB12",No colonies were found
same,growth on low salt plates,"spectinomycin at 15 to 120 mg/L, BG-11+vB12, about 2 weeks",abundant growth
